From article PMC4705983, “Structural Dissection of the Maltodextrin Disproportionation Cycle of the Arabidopsis Plastidial Disproportionating Enzyme 1 (DPE1)” (The Journal of Biological Chemistry, 2015) come the findings set out here.

Assay [1] addresses T1, AtDPE1 (disproportionating enzyme 1) (Arabidopsis thaliana, UniProt Q9LV91).
T1 construct: gene DPE1; residues 46-576, transit peptide removed, N-terminal His6 tag kept (pET151/D-TOPO), homodimer
T1 sequence (Q9LV91 46-576): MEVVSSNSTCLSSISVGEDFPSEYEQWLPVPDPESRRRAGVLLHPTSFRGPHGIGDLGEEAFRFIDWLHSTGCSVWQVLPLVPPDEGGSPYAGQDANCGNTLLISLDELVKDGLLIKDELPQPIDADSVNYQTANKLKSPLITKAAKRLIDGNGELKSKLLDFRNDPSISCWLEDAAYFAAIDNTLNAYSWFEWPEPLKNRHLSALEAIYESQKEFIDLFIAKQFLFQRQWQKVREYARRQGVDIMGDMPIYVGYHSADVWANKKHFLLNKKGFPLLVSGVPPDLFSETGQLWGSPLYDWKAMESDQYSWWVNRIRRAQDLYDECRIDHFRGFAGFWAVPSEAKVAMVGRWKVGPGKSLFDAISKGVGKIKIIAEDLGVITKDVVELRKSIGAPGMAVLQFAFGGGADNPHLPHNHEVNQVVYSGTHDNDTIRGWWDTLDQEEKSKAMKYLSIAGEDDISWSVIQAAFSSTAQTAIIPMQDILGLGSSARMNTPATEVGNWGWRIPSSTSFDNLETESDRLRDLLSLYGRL
Kind of assay: turnover in crystal (transglycosylation during soak), X-ray crystallography. It counts as biochemical. To be noted: 10 mM soak, pH 8.0; intact maltotriose not seen, longer malto-oligosaccharide bound.

The target of assay [2] is T1, AtDPE1 (disproportionating enzyme 1). The assay can be described thus: X-ray crystallography, crystal soak. It is filed as biochemical. Conditions: covalent; 10 mM soak, pH 8.0; only the maltosyl unit (subsites -2, -1) linked to Asp-373 seen, from slow cleavage; 2.30 Å.

As for `OC[C@H]1O[C@H](O[C@H]2[C@H](O)[C@@H](O)[C@@H](O[C@H]3[C@H](O)[C@@H](O)C(O)O[C@@H]3CO)O[C@@H]2CO)[C@H](O)[C@@H](O)[C@@H]1O` (some centres unmarked) [MA3, maltotriose], in assay [1], the “turnover in crystal (transglycosylation during soak), X-ray crystallography” value is recorded as “malto-oligosaccharide in each active site, indicative of transglycosylation reactions occurring during crystal soaking”.

With `OC[C@H]1O[C@@H]2O[C@H]3[C@H](O)[C@@H](O)[C@@H](O[C@H]4[C@H](O)[C@@H](O)[C@@H](O[C@H]5[C@H](O)[C@@H](O)[C@@H](O[C@H]6[C@H](O)[C@@H](O)[C@@H](O[C@H]7[C@H](O)[C@@H](O)[C@@H](O[C@H]8[C@H](O)[C@@H](O)[C@@H](O[C@H]1[C@H](O)[C@H]2O)O[C@@H]8CO)O[C@@H]7CO)O[C@@H]6CO)O[C@@H]5CO)O[C@@H]4CO)O[C@@H]3CO` [BCD, β-cyclodextrin], in assay [2], the “X-ray crystallography, crystal soak” value is reported as “The covalently bound donor most likely resulted from a slow hydrolysis of β-cyclodextrin”.
